Experimental findings from patent US20100087523A1, “Rupestonic acid derivatives and use thereof” (priority 2008, published 2010) are described below.

Where two headings read alike, the source gives them in different places.

One series is described as follows: in vitro. The conditions noted are these: dog.
Series [1] relates to A-type flu virus (jifang/90-15). Nature of the series: organism not typed. The conditions noted are these: MDCK, 36 h, read-out: Activity for inhibiting A-type flu viruses IC50.
For series [2], the system named is MDCK (Madin-darby canine kidney) cells. The note with it: read-out: TC50 (toxic concentration 50%); host cells of the anti-flu virus test.
The subject of series [3] is A-type flu virus (jifang/90-15).
Series [4] relates to B-type flu virus (jifang/97-13). The note with it: read-out: Activity for inhibiting B-type flu viruses IC50.
The test system is the same in series [5]. Briefly: organism not typed. The conditions noted are these: MDCK, 36 h, read-out: Activity for inhibiting B-type flu viruses IC50.
The mark [6] stands for this setting: read-out: Activity for inhibiting A-type flu viruses IC50.
The mark [7] stands for this setting: read-out: IC50, inhibit A-type flu virus.

In the case of `CCOC(=O)C1=C[C@@H](OC(CC)CC)[C@H](NC(C)=O)[C@@H](N)C1` [Oseltamivir], the CC50 in the series “in vitro” was more than 1220 µM. For the same molecule, the IC50 (in general, the concentration at which inhibition is half-maximal) in series [1] turned out to be 5.1 µM.

On to `C=C(C(=O)Oc1ccccc1Cl)C1CCC(C)C2CC(=O)C(C)=C2C1` (centres unmarked) [B-3, Rupestonic (o-chlorophenyl)-ester], for which the CC50 in series [2] turned out to be 49.7 µM. In addition, in series [3] (setting [6]), the IC50 came to 11.5 µM.

`C=C(C(=O)OCc1ccc([N+](=O)[O-])cc1)C1CCC(C)C2CC(=O)C(C)=C2C1` (centres unmarked) [B-15, Rupestonic (p-nitryl-benzyl)-ester]: the CC50 in series [2] was determined as 25 µM. Further, the half-inhibitory concentration (IC50) in series [3] (setting [6]) and in series [4] was 5.5 µM throughout.

Regarding `C=C(C(=O)Oc1ccc(C)cc1)C1CCC(C)C2CC(=O)C(C)=C2C1` (centres unmarked) [B-9, Rupestonic (p-methylphenyl)-ester], the CC50 in series [2] turned out to be 191 µM. The 50% inhibitory concentration (IC50) in series [3] (setting [7]) came out at 13.4 µM.

As for `C=C(C(=O)OCc1ccccc1Br)C1CCC(C)C2CC(=O)C(C)=C2C1` (centres unmarked) [B-17, Rupestonic (o-bromobenzyl)-ester], the CC50 in series [2] worked out at 57.3 µM. Also, the IC50 in series [3] (setting [6]) came out at 15.2 µM; in series [4], 25.7 µM.

In “in vitro”, `NC(=O)c1ncn([C@@H]2O[C@H](CO)[C@@H](O)[C@H]2O)n1` [Ribavirin] registered a CC50 of 1570 µM. Moreover, the IC50 in series [1] was determined as 1.6 µM; in series [5] it was 11.9 µM.

Regarding `C=C(C(=O)Nc1ccccc1Br)C1CCC(C)C2CC(=O)C(C)=C2C1` (centres unmarked) [A-5, N(2-bromo-phenyl)-Rupestonic amide], in series [2], the CC50 was found to be 160 µM. Moreover, the IC50 in series [3] (setting [6]) was 49 µM.

Take `C=C(C(=O)OCC)C1CCC(C)C2CC(=O)C(C)=C2C1` (centres unmarked) [B-1, Ethyl Rupestonic ester]: the CC50 in series [2] turned out to be 194 µM. Moreover, the IC50 in series [3] (setting [6]) worked out at 39.1 µM; in series [4] it was 50.9 µM.

Regarding `C=C(C(=O)Oc1ccc(Cl)cc1)C1CCC(C)C2CC(=O)C(C)=C2C1` (centres unmarked) [B-2, Rupestonic (p-chlorophenyl)-ester], the CC50 in series [2] is 240 µM. In addition, the half-maximal inhibitory concentration (IC50) in series [3] (setting [7]) was determined as 19.1 µM.

Turning to `C=C(C(=O)O)[C@H]1CC[C@H](C)[C@@H]2CC(=O)C(C)=C2C1` [Compound 1, rupestonic acid], the CC50 in series [2] amounted to 1040 µM. Besides, the IC50 in series [4] stood at 116 µM.

`C=C(C(=O)Oc1ccc(Br)cc1)C1CCC(C)C2CC(=O)C(C)=C2C1` (centres unmarked) [B-4, Rupestonic (p-bromophenyl)-ester]: the CC50 in series [2] came out at 44.2 µM. Moreover, in series [3] (setting [6]), the IC50 is 10.2 µM.

Turning to `C=C(C(=O)OCc1ccc(Cl)cc1)C1CCC(C)C2CC(=O)C(C)=C2C1` (centres unmarked) [B-14, Rupestonic (p-chlorobenzyl)-ester], in series [2], the CC50 is 47.7 µM. For the same molecule, the concentration for half-maximal inhibition (IC50) in series [3] (setting [6]) stood at 12.5 µM; in series [4] it was 19.1 µM.

Consider `C=C(C(=O)Nc1ccc(Cl)cc1)C1CCC(C)C2CC(=O)C(C)=C2C1` (centres unmarked) [A-2, N(4-chloro-phenyl)-Rupestonic amide], for which, in series [2], the CC50 came out at 121 µM. In addition, the IC50 in series [3] (setting [6]) was 19.2 µM; in series [4], 29.9 µM.
